Results on 1 molecule are retold here after ChEMBL document CHEMBL2401656, “LDK378: a promising anaplastic lymphoma kinase (ALK) inhibitor” (J Med Chem, 2013).

Series [1] can be described thus: Cytotoxicity against mouse BA/F3 cells transfected with Tel-InsR gene assessed as growth inhibition. As to conditions: BaF3; call rule not given here. The format is functional, cell-based.
Series [2] has as its system Rattus norvegicus. As to the kind of experiment: Toxicity in rat xenografted with human NCI-H2228 cells expressing EML4-ALK fusion gene. As to conditions: in vivo. The format is organism-based.
The target of series [3] is Cytochrome P450 3A4 (Homo sapiens, UniProt P08684). As to the kind of experiment: Inhibition of CYP3A4 (unknown origin). It is filed as ADME.
Series [4] has as its system Rhesus monkey. As to the kind of experiment: Cardiotoxicity in monkey assessed as QTc prolongation by telemetric analysis. The format is toxicity, organism-based, Macaca mulatta. To be noted: in vivo.
Series [5] can be described thus: Oral bioavailability in rat. It is filed as ADME, organism-based. To be noted: in vivo.
The species entered for series [6] is Canis familiaris. As to the kind of experiment: Cardiotoxicity in dog assessed as QTc prolongation by telemetric analysis. The format is toxicity, organism-based, Canis lupus familiaris. As to conditions: in vivo.
Series [7] has as its system KARPAS-299. As to the kind of experiment: Cytotoxicity against human KARPAS299 cells expressing NPM-ALK fusion gene assessed as growth inhibition.
Series [8] has as its system KARPAS-299. To be noted: Homo sapiens.
Description: Antitumor activity against human KARPAS299 cells xenografted in rat assessed as tumor growth inhibition
Series [9] can be described thus: Cytotoxicity against mouse BA/F3 cells expressing NPM-ALK fusion gene assessed as growth inhibition. The format is functional, cell-based. To be noted: BaF3.
Series [10] can be described thus: Metabolic stability in liver microsomes (unknown origin). It is filed as ADME, Microsome. On the technique in general: Liver microsomes are a subcellular fraction often used to study metabolism.
Series [11] deals with Rattus norvegicus. Briefly: Toxicity in rat xenografted with human KARPAS299 cells. The format is organism-based, KARPAS-299. As to conditions: in vivo. (In general: A xenograft is tissue or cells of one species grown in another, often human tumour cells in immunodeficient mice.)
The nature of series [12]: Cytotoxicity against wild type mouse BA/F3 cells assessed as growth inhibition. It is filed as functional, cell-based. To be noted: BaF3.

Each structure is given as a SMILES string.

Sequence of Cytochrome P450 3A4 (P08684 whole entry): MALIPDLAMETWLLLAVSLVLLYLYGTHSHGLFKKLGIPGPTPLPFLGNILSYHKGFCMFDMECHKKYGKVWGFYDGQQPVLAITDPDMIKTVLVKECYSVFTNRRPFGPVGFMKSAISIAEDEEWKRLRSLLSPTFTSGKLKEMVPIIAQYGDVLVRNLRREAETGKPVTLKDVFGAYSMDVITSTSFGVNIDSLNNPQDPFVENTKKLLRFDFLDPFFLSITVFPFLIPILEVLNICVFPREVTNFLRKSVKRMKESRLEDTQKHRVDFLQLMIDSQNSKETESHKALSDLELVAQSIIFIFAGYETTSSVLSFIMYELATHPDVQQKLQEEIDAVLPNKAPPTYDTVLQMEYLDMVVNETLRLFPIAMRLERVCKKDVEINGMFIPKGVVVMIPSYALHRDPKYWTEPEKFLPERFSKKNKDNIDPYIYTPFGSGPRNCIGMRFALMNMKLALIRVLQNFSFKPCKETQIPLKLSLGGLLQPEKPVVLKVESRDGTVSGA

As to `Cc1cc(Nc2ncc(Cl)c(Nc3ccccc3S(=O)(=O)C(C)C)n2)c(OC(C)C)cc1C1CCNCC1` [CERITINIB], the IC50 in series [1] was 320 nM; in series [7] it was 22.8 nM; in series [9], 26 nM; in series [12] it was over 2000 nM. The Activity entry in series [2], in [4], in series [6] and in [11] was “Non-toxic” each time. Moreover, the “inhibition (INH)” value in series [3] is recorded as “Active”. In [5], this molecule gave a bioavailability of over 50%. Further, in series [8], the TGI result was “Dose-dependent effect”. Moreover, in [10], the Stability result is “Stable”.

Broadly, the IC50 is the midpoint of a concentration-inhibition curve. By bioavailability is commonly meant the share of a dose that reaches the circulation, judged against a reference dose that is usually intravenous.
